Results taken from patent US20250066388A1, “1,3,4,7-TETRAHYDRO-2H-PYRROLO[3',2':5,6]PYRIDO[2,3-B][1,4]OXAZEPINE BCL-2 INHIBITORS” (AbbVie Inc., priority 2022, published 2025).
“And” between values parts separate entries of the source, which are not always exact repeats. Identical values can stand only once. Like-named read-outs stand apart in the source and are kept apart here.

Legend:
[1] = target: Bcl-xL protein (Homo sapiens (Human), UniProt Q07817); assay: TR-FRET binding assay, Bcl-xL; conditions: F-Bak peptide probe
[2] = target: Bcl-2 protein (Homo sapiens (Human), UniProt P10415); assay: TR-FRET binding assay, Bcl-2; conditions: F-Bak peptide probe, GST-Bcl-2
[3] = Bioavailability study: pharmacokinetics after single intravenous or oral dose in mouse; assay type: in vivo; conditions: for half-life: CD-1, mouse, plasma, 1 mg/kg
Experimental: Studies were conducted to evaluate the pharmacokinetic profiles of Example 25 herein and Example 2 in WO 2019/040550 after single intravenous or oral dose in mouse. CD-1 mice (male) were obtained from Charles River Laboratories (Wilmington, MA).
The pharmacokinetics of Example 25 herein and Example 2 in WO 2019/040550 were evaluated following single 1 mg/kg intravenous or oral doses in mouse. Example 25 herein and Example 2 in WO 2019/040550 were prepared as a solution in DMSO: Tween 80: PEG-400: Dextrose 5% in Water (5:5:20:70, v/v) for the IV and oral dose mouse studies. The intravenous dose was administered as a slow bolus to the penile vein under isoflurane anesthesia. The oral doses were administrated by gavage. Serial blood samples were obtained […], 0.25, 0.5, 1.0, 4, 6, 9, 12, 24, 32 and 48 hours post dosing and […]. Plasma was separated by centrifugation and stored frozen (<−15° C.) until analysis.
HPLC-MS/MS bioanalytical methods were utilized for the quantitation of Example 25 herein and Example 2 in WO 2019/040550 concentration in plasma. The analytical methods used protein precipitation to extract compound from plasma. All samples were combined with a minimum two volume equivalents of organic solvent containing internal standard, vortexed and then centrifuged to pellet the proteins. Supernatants were used for subsequent analysis by liquid chromatography-tandem mass spectrometry (LC-MS/MS). Studies involving quantitative analysis employed spiked standards in plasma that were processed simultaneously with the samples.
Analytes were separated using reverse phase chromatography on a C8 or C18 column prior to analysis on an API5500™ (or higher) mass spectrometer with a Turbo-Ion Spray source. Peak areas were determined using Sciex Analyst™ 1.6 (or higher) software or Sound Analytics DiscoveryQuant™ 2.0 (or higher) software. Actual concentrations (when required) were calculated by regression analysis of the peak area ratio (parent/internal standard) of the spiked standards versus concentrations.
Peak plasma concentrations (Cmax) and the time to peak plasma concentration (Tmax) were determined directly from the plasma concentration data for each animal. The compound plasma concentration data were submitted to multi-exponential curve fitting using WinNonlin software. The area under the plasma concentration-time curve from 0 to t hours after dosing (AUC0-t, t=time of the last measurable plasma concentration) was calculated using the linear trapezoidal rule. The residual area extrapolated to infinity, determined as the final measured plasma concentration (Ct) divided by the terminal plasma elimination rate constant (β), was added to the AUC0-t to produce the total area under the curve (AUC0-∞). The apparent total plasma clearance (CLp) was calculated by dividing the administered dose by the AUC0-∞. Half-life (t1/2) was determined with the following calculation: t1/2=ln (2)/elimination rate constant. The initial volume of distribution (Vc) was calculated as the dose divided by the extrapolated concentration at time=0 (C0). The volume of distribution at steady state, Vss, was estimated as a product of the total plasma clearance (CLp) and the mean residence time (MRT); the terminal-phase volume of distribution, Vβ, was derived from the total plasma clearance value (CLp) divided by the terminal plasma elimination rate constant (β). Oral bioavailability (F) was calculated as the dose-normalized AUC0-∞ (AUC0-∞/D) from the oral dose divided by the corresponding dose normalized AUC0-∞ from intravenous dosing.

[4] = tested on: RS4;11 cells; assay: Cell viability assay (CellTiter-Glo) in RS4;11 cells; assay type: cell-based; conditions: 24 hours, 10% Human Serum
Procedure, shortened: (§1)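 3000 cells/well (0.1×10^6/mL) were treated with compound for 24 hours in 5% CO2. Viability read by CellTiter-Glo luminescence; Molt-4 (T-ALL) served as the counter screen to RS4;11 (ALL).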

[5] = tested on: Molt-4 cells; assay: Cell viability counter screen (CellTiter-Glo) in Molt-4 cells; assay type: cell-based; conditions: 24 hours, 10% Human Serum
Procedure, shortened: as §1

[6] = IV (1 mg/kg), mouse plasma, individual mouse
[7] = PO (1 mg/kg), mouse plasma, individual mouse

Chain of Bcl-xL protein (Q07817 other isoform, or with tags, fused parts or gaps): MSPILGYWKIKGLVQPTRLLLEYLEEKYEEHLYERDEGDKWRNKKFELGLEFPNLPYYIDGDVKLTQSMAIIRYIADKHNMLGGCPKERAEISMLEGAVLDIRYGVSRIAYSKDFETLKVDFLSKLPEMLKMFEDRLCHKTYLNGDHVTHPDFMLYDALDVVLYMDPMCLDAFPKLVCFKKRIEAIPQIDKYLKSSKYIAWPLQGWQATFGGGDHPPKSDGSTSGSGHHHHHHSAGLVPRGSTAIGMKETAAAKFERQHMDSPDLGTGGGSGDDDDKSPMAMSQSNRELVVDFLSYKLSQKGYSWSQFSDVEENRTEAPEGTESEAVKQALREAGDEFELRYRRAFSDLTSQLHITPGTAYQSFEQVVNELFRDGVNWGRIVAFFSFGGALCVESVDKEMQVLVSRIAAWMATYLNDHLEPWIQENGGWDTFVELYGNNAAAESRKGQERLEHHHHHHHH
Chain of Bcl-2 protein (P10415 other isoform, or with tags, fused parts or gaps): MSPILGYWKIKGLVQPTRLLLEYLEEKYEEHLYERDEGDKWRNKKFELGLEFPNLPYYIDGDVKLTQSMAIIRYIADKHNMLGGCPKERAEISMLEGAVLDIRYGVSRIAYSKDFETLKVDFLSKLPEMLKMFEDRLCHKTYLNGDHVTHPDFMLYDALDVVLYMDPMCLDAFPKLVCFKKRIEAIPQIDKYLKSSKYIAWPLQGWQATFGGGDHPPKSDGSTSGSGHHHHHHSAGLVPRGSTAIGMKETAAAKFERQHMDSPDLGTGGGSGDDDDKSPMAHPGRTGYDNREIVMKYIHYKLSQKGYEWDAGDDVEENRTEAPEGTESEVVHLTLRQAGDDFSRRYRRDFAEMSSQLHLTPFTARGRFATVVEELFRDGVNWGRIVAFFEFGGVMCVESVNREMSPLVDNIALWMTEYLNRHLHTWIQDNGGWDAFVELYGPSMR

SMILES	Ki [1]	Ki [2]	AUC [3, 6]	C0 [3, 6]	CLP [3, 6]	MRT [3, 6]	VSS [3, 6]	Vβ [3, 6]	t1/2 [3, 6]	Vβ ([3]; IV (1 mg/kg), mouse plasma, mean)	AUC [3, 7]	Cmax [3, 7]	half-life ([3]; male, iv, IV (1 mg/kg), individual mouse)	half-life ([3]; male, po, PO (1 mg/kg), harmonic mean)	half-life ([3]; male, po, PO (1 mg/kg), individual mouse)	MRT ([3]; male, CD-1, IV (1 mg/kg), mouse plasma, individual mouse, read-out: MRT)	clearance ([3]; male, CD-1, IV (1 mg/kg), mouse plasma, mean, read-out: CLP (converted))	Tmax ([3]; male, CD-1, PO (1 mg/kg), mouse plasma, individual mouse)	EC50 [4]	EC50 [5]
CO[C@@H]1CC[C@@H](CNc2ccc(S(=O)(=O)NC(=O)c3ccc(N4CCN5CC6=C(c7ccc(Cl)cc7)CC(C)(C)C[C@H]6OCCCOC[C@@H]5C4)cc3N3CCCOc4nc5[nH]ccc5cc43)cc2[N+](=O)[O-])OC1 [Example 25, 4-((4aS,10aR)-14-(4-chlorophenyl)-12,12-dimethyl-1,2,4a,5,8,9,10a,11,13,15-decahydro-7H,12H-benzo[f]pyrazino[2,1-c][1,8]dioxa[4]azacycloundecin-3(4H)-yl)-2-(3,4-dihydro-2H-pyrrolo[3′,2′:5,6]pyrido[2,3-b][1,4]oxazepin-1(7H)-yl)-N-((4-((((2S,5R)-5-methoxytetrahydro-2H-pyran-2-yl)methyl)amino)-3-nitrophenyl)sulfonyl)benzamide]	13.6 nM	0.273 nM	11200 ng·h/mL and 12900 ng·h/mL	5020 ng/mL and 3470 ng/mL	1.48 mL/min/kg	9.8 h	0.93 L/kg and 0.76 L/kg	0.95 L/kg and 1.0 L/kg and 0.90 L/kg	7.9 h and 8.1 h	0.96 L/kg	4330 ng·h/mL and 4490 ng·h/mL	279 ng/mL and 274 ng/mL	10 h	8.7 h	8.7 h	10 h	1.28 mL/min/kg	4 h	–	–
CO[C@H]1C[C@H](CNc2ccc(S(=O)(=O)NC(=O)c3ccc(N4CCN5CC6=C(c7ccc(Cl)cc7)CC(C)(C)C[C@H]6OCCCOC[C@@H]5C4)cc3N3CCCOc4nc5[nH]ccc5cc43)cc2[N+](=O)[O-])C1 [Example 41, 4-((4aS,10aR)-14-(4-chlorophenyl)-12,12-dimethyl-1,2,4a,5,8,9,10a,11,13,15-decahydro-7H,12H-benzo[f]pyrazino[2,1-c][1,8]dioxa[4]azacycloundecin-3(4H)-yl)-2-(3,4-dihydro-2H-pyrrolo[3′,2′:5,6]pyrido[2,3-b][1,4]oxazepin-1(7H)-yl)-N-((4-((((1r,3r)-3-methoxycyclobutyl)methyl)amino)-3-nitrophenyl)sulfonyl)benzamide]	25.2 nM	0.224 nM	–	–	–	–	–	–	–	–	–	–	–	–	–	–	–	–	3.93 nM	> 10000 nM
CC1(C)CC(c2ccc(Cl)cc2)=C2CN3CCN(c4ccc(C(=O)NS(=O)(=O)c5ccc(OCC6CCOCC6)c([N+](=O)[O-])c5)c(N5CCCOc6nc7[nH]ccc7cc65)c4)C[C@H]3COCCCO[C@@H]2C1 [Example 46, 4-((4aS,10aR)-14-(4-chlorophenyl)-12,12-dimethyl-1,2,4a,5,8,9,10a,11,13,15-decahydro-7H,12H-benzo[f]pyrazino[2,1-c][1,8]dioxa[4]azacycloundecin-3(4H)-yl)-2-(3,4-dihydro-2H-pyrrolo[3′,2′:5,6]pyrido[2,3-b][1,4]oxazepin-1(7H)-yl)-N-((3-nitro-4-((tetrahydro-2H-pyran-4-yl)methoxy)phenyl)sulfonyl)benzamide]	21.7 nM	0.202 nM	–	–	–	–	–	–	–	–	–	–	–	–	–	–	–	–	9.36 nM	> 10000 nM
